Organism: Rattus norvegicus
Assay: Open TG-GATES - Regimen: Daily Repeat
Type: toxicity, organism-based, Sprague-Dawley
Design: regimen Daily Repeat, gender Male, age 6 weeks
Conditions: in vivo, po, route gavage; for APTT / Bas / Eos / Fbg / Hb / Ht / Lym / MCHC / MCV / Mono / Neu / PT / Plat / RBC / Ret / WBC: tissue Blood; for KIDNEY_L / KIDNEY_R / KIDNEY_TOTAL: tissue Kidney; for LIVER: tissue Liver; for ALP / ALT / AST / CRE / DBIL / GLC / K / LDH / Na / PL / RALB / TBIL / TC / TG / TP / gamma-GTP / IP: tissue Plasma
[1] = 200 mg/kg, 72 h, dose level Middle, time 3 day
[2] = 200 mg/kg, […], dose level Middle, time 7 day
[3] = 200 mg/kg, […], dose level Middle, time 14 day
[4] = 200 mg/kg, […], dose level Middle, time 28 day

`O=C1NC(=O)C(c2ccccc2)(c2ccccc2)N1` [PHENYTOIN] gave a TERMINAL_BW [1] of 220.5 g, an APTT [1] of 21 s and a Bas [1] of 0%. The Eos [1] was 0.8%, the Fbg [1] was 304.4 mg/dL and the Hb [1] was 13 g/dL. It also gave a Ht [1] of 39.4%, a Lym [1] of 77.4% and an MCHC [1] of 33.1%. The MCV [1] was 63.8 fL, the Mono [1] was 2.4% and the Neu [1] was 18.4%. The PT [1] was 15.5 s, the Plat [1] was 117 x10_4/uL and the RBC [1] was 618.4 x10_4/ul. For the same compound, the Ret [1] was 7.3%, the WBC [1] was 98.2 x10_2/uL and the KIDNEY_L [1] was 0.9 g. It also gave a KIDNEY_R [1] of 0.9 g, a KIDNEY_TOTAL [1] of 1.9 g and an LIVER [1] of 10.5 g. The ALP [1] was 1568.8 IU/L, the ALT [1] was 45.8 IU/L and the AST [1] was 75.4 IU/L. It also gave a CRE [1] of 0.1 mg/dL, a DBIL [1] of 0.008 mg/dL and a GLC [1] of 185.8 mg/dL. The K [1] was 4 meq/L, the LDH [1] was 188 IU/L and the Na [1] was 143.4 meq/L. The PL [1] was 147 mg/dL, the RALB [1] was 2.9 g/dL and the TBIL [1] was 0.012 mg/dL. It also gave a TC [1] of 84.4 mg/dL, a TG [1] of 85.2 mg/dL and a TP [1] of 5.8 g/dL. It also gave a gamma-GTP [1] of 1 IU/L, a TERMINAL_BW [2] of 247.9 g and a TERMINAL_BW [3] of 301 g. The TERMINAL_BW [4] was 393.6 g, the APTT [2] was 22.3 s and the Bas [2] was 0%. It also gave an Eos [2] of 0.6%, a Fbg [2] of 324 mg/dL and a Hb [2] of 13.1 g/dL. It also gave a Ht [2] of 38.8%, a Lym [2] of 79.8% and an MCHC [2] of 33.7%. The MCV [2] was 62.5 fL, the Mono [2] was 2.4% and the Neu [2] was 16.2%. The PT [2] was 15.6 s, the Plat [2] was 123.7 x10_4/uL and the RBC [2] was 621.2 x10_4/ul. The Ret [2] was 6%, the WBC [2] was 109.9 x10_2/uL and the APTT [3] was 22.3 s. The Bas [3] was 0%, the Eos [3] was 0.8% and the Fbg [3] was 285.6 mg/dL. For the same compound, the Hb [3] was 14.1 g/dL, the Ht [3] was 41.4% and the Lym [3] was 82.6%. The MCHC [3] was 34.1%, the MCV [3] was 62 fL and the Mono [3] was 2.2%. It also gave a Neu [3] of 13.6%, a PT [3] of 16.3 s and a Plat [3] of 121.5 x10_4/uL. For the same compound, the RBC [3] was 669.8 x10_4/ul, the Ret [3] was 4.7% and the WBC [3] was 112.2 x10_2/uL. It also gave an APTT [4] of 23.4 s, a Bas [4] of 0% and an Eos [4] of 1.2%. For the same compound, the Fbg [4] was 332.6 mg/dL, the Hb [4] was 15.4 g/dL and the Ht [4] was 43.4%. It also gave a Lym [4] of 84%, an MCHC [4] of 35.5% and an MCV [4] of 58.1 fL. The Mono [4] was 1.4%, the Neu [4] was 12.6% and the PT [4] was 15.8 s. For the same compound, the Plat [4] was 122.2 x10_4/uL, the RBC [4] was 747 x10_4/ul and the Ret [4] was 2.9%. It also gave a WBC [4] of 117 x10_2/uL, a KIDNEY_L [2] of 1.1 g and a KIDNEY_R [2] of 1 g. The KIDNEY_TOTAL [2] was 2.1 g, the KIDNEY_L [3] was 1.2 g and the KIDNEY_R [3] was 1.2 g. The KIDNEY_TOTAL [3] was 2.4 g, the KIDNEY_L [4] was 1.4 g and the KIDNEY_R [4] was 1.5 g. The KIDNEY_TOTAL [4] was 2.9 g, the LIVER [2] was 12.4 g and the LIVER [3] was 13.9 g. For the same compound, the LIVER [4] was 17.5 g, the ALP [2] was 1383 IU/L and the ALT [2] was 39.4 IU/L. It also gave an AST [2] of 61 IU/L, a CRE [2] of 0.2 mg/dL and a DBIL [2] of 0.004 mg/dL. For the same compound, the GLC [2] was 187.6 mg/dL, the IP [2] was 6.9 mg/dL and the K [2] was 4.1 meq/L. For the same compound, the LDH [2] was 159.2 IU/L, the Na [2] was 141.8 meq/L and the PL [2] was 146.4 mg/dL. It also gave an RALB [2] of 3.1 g/dL, a TBIL [2] of 0.024 mg/dL and a TC [2] of 74.8 mg/dL. The TG [2] was 120.4 mg/dL, the TP [2] was 5.8 g/dL and the gamma-GTP [2] was 1 IU/L. For the same compound, the ALP [3] was 1572.8 IU/L, the ALT [3] was 41.8 IU/L and the AST [3] was 65.8 IU/L. The CRE [3] was 0.2 mg/dL, the DBIL [3] was 0 mg/dL and the GLC [3] was 174.2 mg/dL. For the same compound, the IP [3] was 7 mg/dL, the K [3] was 4.2 meq/L and the LDH [3] was 130 IU/L. It also gave a Na [3] of 142.8 meq/L, a PL [3] of 147 mg/dL and an RALB [3] of 3.1 g/dL. It also gave a TBIL [3] of 0.002 mg/dL, a TC [3] of 70.6 mg/dL and a TG [3] of 163.4 mg/dL. It also gave a TP [3] of 5.6 g/dL, a gamma-GTP [3] of 1.6 IU/L and an ALP [4] of 1131.8 IU/L. The ALT [4] was 44 IU/L, the AST [4] was 74.6 IU/L and the CRE [4] was 0.2 mg/dL. For the same compound, the DBIL [4] was 0.002 mg/dL, the GLC [4] was 186.4 mg/dL and the IP [4] was 6.3 mg/dL. The K [4] was 3.9 meq/L, the LDH [4] was 146.2 IU/L and the Na [4] was 143.6 meq/L. For the same compound, the PL [4] was 160 mg/dL, the RALB [4] was 3.2 g/dL and the TBIL [4] was 0.028 mg/dL. It also gave a TC [4] of 81 mg/dL, a TG [4] of 138.4 mg/dL and a TP [4] of 6.3 g/dL. It also gave a gamma-GTP [4] of 1.6 IU/L and a TERMINAL_BW (600 mg/kg, 72 h, dose level High, time 3 day) of 211.2 g.
